From the NIST ThermoML archive (doi:10.1016/j.fluid.2018.05.023) come the findings set out here.

For series [1] the following is noted: Crystal; DTA.
Series [2] is described as follows: Molar enthalpy of transition or fusion. The settings on record: Crystal; DSC.

± gives the expanded uncertainty stated by the source.

Take `Cn1cc([N+](=O)[O-])cn1` [1-methyl-4-nitropyrazole]: the Normal melting temperature in series [1] was found to be 92.00 ± 1.1 °C. Besides, the “Molar enthalpy of transition or fusion” value in series [2] was found to be 2.36 ± 0.112 kcal/mol.
